Results from PMC5289826 (PLoS ONE, 2017).

tested on: T1, human 17β-HSD1; assay: 17β-HSD1 enzyme activity in cell lysates (estrone to estradiol); type: biochemical; conditions: 1 μM, 200 nM estrone
T1 construct: expressed in transfected cells; host or cells: HEK-293 (transient)
Protocol: (§1) Human embryonic kidney (HEK-293) cells either stably expressing human 11β-HSD1 and H6PDH (HHH7 clone, [38]) or 11β-HSD2 (AT8 clone, [39]), or transiently expressing human 17β-HSD1 or 17β-HSD2, were cultivated in Dulbecco’s modified Eagle medium (DMEM) containing 4.5 g/L glucose, 10% fetal bovine serum, 100 U/mL penicillin, 0.1 mg/mL streptomycin, 1 × MEM nonessential amino acids, and 10 mM HEPES buffer, pH 7.4. Cells were washed with phosphate-buffered saline (PBS), centrifuged for 4 min at 150 × g, and the cell pellets were snap frozen on dry ice and stored at −80°C until further use.
(§2) Cell lysates were resuspended in TS2 buffer (100 mM NaCl, 1 mM EGTA, 1 mM EDTA, 1 mM MgCl2, 250 mM sucrose, 20 mM Tris-HCl, pH 7.4), followed by sonication at 4°C using a Hielscher UP50H ultrasonic processor (0.3 cycle, 20 amplitude %, 20 impulses; Hielscher Ultrasonics GmbH, Teltow Germany). Cell lysates, reaction mixture, and either vehicle (DMSO) or inhibitor were incubated for 10 min at 37°C in a final volume of 22.2 μL. The solvent concentration was 0.1%. […] 11β-HSD2 activity was measured in the presence of 50 nM cortisol and 500 μM NAD^+. An amount of 50 nCi of radiolabeled tracer substrate was included in the experiments. […] The bands of the corresponding steroids were excised, followed by scintillation counting and calculation of the amount of substrate conversion. Data were obtained from at least three independent measurements. Glycyrrhetinic acid (CTRL 1) was used as positive control for 11β-HSD1 and 11β-HSD2 inhibition, apigenin (CTRL 2) for 17β-HSD1, and compound 22 from Vuorinen et al. [40](CTRL 3) for 17β-HSD2 inhibition.

| SMILES | inhibition of 17β-HSD1 (in words) |
| --- | --- |
| Cc1ccc(-c2cccc(C(=O)N3CCC(C)CC3)c2)cn1 [2b, (4-Methylpiperidin-1-yl)(3-(6-methylpyridin-3-yl)phenyl)methanone] | selective |
| O=C(c1cccc(-c2ccccc2)c1)N1CCCCCC1 [12e, [1,1’-Biphenyl]-3-yl(azepan-1-yl)methanone] | selective |

tested on: T2, human 17β-HSD2; assay: 17β-HSD2 enzyme activity in cell lysates (estradiol to estrone); type: biochemical; conditions: 1 μM, 200 nM estradiol
T2 construct: expressed in transfected cells; host or cells: HEK-293 (transient)
Protocol: as §1, §2

| SMILES | inhibition of 17β-HSD2 (in words) |
| --- | --- |
| Cc1ccc(-c2cccc(C(=O)N3CCC(C)CC3)c2)cn1 [2b, (4-Methylpiperidin-1-yl)(3-(6-methylpyridin-3-yl)phenyl)methanone] | selective |
| O=C(c1cccc(-c2ccccc2)c1)N1CCCCCC1 [12e, [1,1’-Biphenyl]-3-yl(azepan-1-yl)methanone] | selective |

tested on: human skin biopsies; assay: Dermal total collagen content in ex vivo human skin biopsies (Picrosirius Red); conditions: 10 μM or 100 μM inhibitor topically, 6 days; 100 nM cortisone for 5 days
Protocol: (§3) Ex vivo skin experiments were performed as contract research by Cutech Biotechnology following the Helsinki declaration and who obtained permission as well as informed consent from the patient (Padova, Italy). Human skin from abdominal plastic surgery of a donor was used. Skin samples were cut in pieces of approximately 8 × 3 mm (diameter × thickness) and cultured in an air-liquid interface in a perforated ring of stainless steel in contact with culture medium (modified Williams’ E medium, Sigma Aldrich) up to day 6. The culture medium was renewed on day 0 and day 3. The test compounds were applied topically and renewed daily. The application was performed as follows: skin biopsies were gently cleaned with a cotton pad and 4 μL of 10 μM or 100 μM test compound were applied on top of each piece and covered with a 6 mm (diameter) delivery membrane (CoTran 9728 Controlled Caliper Ethylene Vinyl Acetate Membrane, 3M, St. Paul, MN, USA).
Skin viability was assessed in two skin biopsies after 6 days of treatment using methylthiazolyldiphenyl‐tetrazolium bromide (MTT, Sigma Aldrich) staining. Total dermal collagen in skin sections was semi-quantitatively evaluated by Picrosirius Red histochemical staining (using Picric Acid, Fast Green FCF and Direct Red from Sigma Aldrich) that dyes collagen fibers in purple-red. […] The evaluation was performed by estimating both color intensity and distribution using IMAGE J (NIH) analysis software, allowing to obtain a semi-quantitative evaluation of dermal collagen (collagen score). Two slides of each skin sample were processed by image acquisition and related analysis (i.e. 12 images for each treatment).

| SMILES | effect on cortisone-induced collagen decrease (in words) |
| --- | --- |
| Cc1ccc(-c2cccc(C(=O)N3CCC(C)CC3)c2)cn1 [2b, (4-Methylpiperidin-1-yl)(3-(6-methylpyridin-3-yl)phenyl)methanone] | prevented the cortisone-induced collagen decrease |
| O=C(c1cccc(-c2ccccc2)c1)N1CCCCCC1 [12e, [1,1’-Biphenyl]-3-yl(azepan-1-yl)methanone] | prevented the cortisone-induced collagen decrease |

molecular target: T3, endogenous 11β-HSD1 (Homo sapiens, UniProt P28845); assay: 11β-HSD1-dependent cortisol formation in intact primary human keratinocytes; type: cell-based; conditions: 1 μM compound; primary human keratinocytes; 1 μM cortisone; 24 h
T3 construct: intact primary human keratinocytes expressing endogenous 11β-HSD1; host or cells: primary human epidermal keratinocytes
T3 sequence (P28845 whole entry): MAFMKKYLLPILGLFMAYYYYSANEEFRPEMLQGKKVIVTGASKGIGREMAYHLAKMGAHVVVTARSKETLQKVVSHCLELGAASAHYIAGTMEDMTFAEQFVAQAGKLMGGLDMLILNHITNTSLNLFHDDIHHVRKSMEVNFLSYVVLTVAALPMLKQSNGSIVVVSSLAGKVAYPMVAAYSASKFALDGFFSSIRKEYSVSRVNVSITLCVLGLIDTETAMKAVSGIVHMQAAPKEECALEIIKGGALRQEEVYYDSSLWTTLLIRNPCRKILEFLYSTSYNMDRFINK
Protocol: Human epidermal keratinocytes obtained from CELLnTEC advanced Cell Systems (Berne, Switzerland) were maintained in CnT-Prime medium (http://cellntec.com/products/cnt-pr/#datasheet) at 37°C. Cells were subcultivated before reaching confluence. After reaching 90% of confluence, the keratinocytes were washed twice with PBS prior to change to cortisol-free CnT-Prime medium (custom-made by CELLnTEC). […] Compound CAS 1009373-58-3 (CTRL 4, Merck Millipore, Darmstadt, Germany) was used as positive control. After 24 h cell culture supernatants were collected and the amount of cortisol produced was measured on a Mulstiskan Ascent plate reader (MTX Lab Systems, Bradenton, FL) using the Cortisol Parameter Assay Kit (R&D Systems, Minneapolis, MN) following the instructions by the manufacturer. Cell viability was assessed using PrestoBlue® Cell Viability Reagent (Invitrogen, Carlsbad, CA) according to the manufacturer’s instructions.

| SMILES | inhibition of cortisol formation (in words) |
| --- | --- |
| Cc1ccc(-c2cccc(C(=O)N3CCC(C)CC3)c2)cn1 [2b, (4-Methylpiperidin-1-yl)(3-(6-methylpyridin-3-yl)phenyl)methanone] | almost completely inhibited |
| O=C(c1cccc(-c2ccccc2)c1)N1CCCCCC1 [12e, [1,1’-Biphenyl]-3-yl(azepan-1-yl)methanone] | almost completely inhibited |

same assay, conditions: read-out: estimated IC50 of cortisol formation

| SMILES | IC50 [µM] |
| --- | --- |
| Cc1ccc(-c2cccc(C(=O)N3CCC(C)CC3)c2)cn1 [2b, (4-Methylpiperidin-1-yl)(3-(6-methylpyridin-3-yl)phenyl)methanone] | ≤ 0.1 |
| O=C(c1cccc(-c2ccccc2)c1)N1CCCCCC1 [12e, [1,1’-Biphenyl]-3-yl(azepan-1-yl)methanone] | ≤ 0.1 |

tested on: T4, human 11β-HSD1; assay: 11β-HSD1 activity assay in intact HEK-293 cells co-expressing 11β-HSD1 and H6PDH; type: cell-based; conditions: 100 nM and 1 μM compound; intact HHH7 cells; 200 nM cortisone; 30 min
T4 construct: expressed in transfected cells
Protocol: HEK-293 cells co-expressing 11β-HSD1 and H6PDH were seeded in poly-L-lysine coated 96 well-plates (30’000 cells/well) and cultivated in DMEM. At 24 h post-seeding, the cells were washed with charcoal-treated serum-free DMEM (cDMEM) and incubated for 3 h in 100 μL cDMEM. Then, the medium was aspirated and replaced by 30 μL cDMEM. […] The reactions were terminated after 30 min of incubation, followed by analysis of substrate conversion as described above. Data were obtained from at least three independent measurements.

| SMILES | inhibition of 11β-HSD1 in intact cells (in words) |
| --- | --- |
| Cc1ccc(-c2cccc(C(=O)N3CCC(C)CC3)c2)cn1 [2b, (4-Methylpiperidin-1-yl)(3-(6-methylpyridin-3-yl)phenyl)methanone] | almost completely inhibited |
| O=C(c1cccc(-c2ccccc2)c1)N1CCCCCC1 [12e, [1,1’-Biphenyl]-3-yl(azepan-1-yl)methanone] | almost completely inhibited |

tested on: human skin biopsies; assay: Dermal collagen III content in UV exposed ex vivo human skin biopsies (anti-collagen III antibody); conditions: 10 μM; UV irradiated biopsies
Protocol: as §3
Skin biopsies were subjected to UV irradiation using a BIO-SUN system (Vilber Lourmat, Eberhardzell, Germany). The system had the following specifications: Lamp wave length: UVB 312 nm (range 280–320 nm) and UVA 365 nm (range 355–375 nm), range of measure (irradiance): accuracy and linearity ± 0.2%, range of programmed energy: 0.1 to 99.99 J/cm^2, intensity: UVA (365 nm) 5 mW/cm^2, UVB (312 nm) 3 mW/cm^2, UVA + UVB: 5.6 + 3.2 mW/cm^2, respectively. The selected UV irradiation intensities were 40% and 80% of the Biological Effective Dose (BED) of 7.5 J/cm^2 UV daylight as described by Del Bino et al.. UV 40% BED = 3.0 J/cm^2 (= 0.1 J/cm^2 UVB + 2.9 J/cm^2 UVA); UV 80% = 6.0 J/cm^2 (= 0.2 J/cm^2 UVB + 5.8 J/cm^2 UVA).
Furthermore, in a preliminary set of experiments, skin biopsies were UV irradiated at 3.0 J/cm^2 and 6.0 J/cm^2 and treated topically with 4 μL of 10 μM or 100 μM of the respective inhibitor, followed by determination of collagen III content using a mouse monoclonal anti-collagen III antibody (Sigma Aldrich).

| SMILES | collagen III vs UV treated vehicle control (in words) |
| --- | --- |
| Cc1ccc(-c2cccc(C(=O)N3CCC(C)CC3)c2)cn1 [2b, (4-Methylpiperidin-1-yl)(3-(6-methylpyridin-3-yl)phenyl)methanone] | did not result in significant changes |
| O=C(c1cccc(-c2ccccc2)c1)N1CCCCCC1 [12e, [1,1’-Biphenyl]-3-yl(azepan-1-yl)methanone] | did not result in significant changes |

same assay, conditions: 100 μM; 6.0 J/cm^2 UV irradiation

| SMILES | collagen III vs UV treated vehicle control (in words) |
| --- | --- |
| Cc1ccc(-c2cccc(C(=O)N3CCC(C)CC3)c2)cn1 [2b, (4-Methylpiperidin-1-yl)(3-(6-methylpyridin-3-yl)phenyl)methanone] | significantly higher collagen III levels |
| O=C(c1cccc(-c2ccccc2)c1)N1CCCCCC1 [12e, [1,1’-Biphenyl]-3-yl(azepan-1-yl)methanone] | significantly higher collagen III levels |

molecular target: T5, recombinant human 11β-HSD1 (Homo sapiens, UniProt P28845); assay: 11β-HSD1 enzyme activity in cell lysates (cortisone to cortisol, radiolabeled tracer, TLC); type: biochemical; conditions: not given
T5 construct: expressed in transfected cells
T5 sequence (P28845 whole entry): as above
Protocol: as §1, §2

| SMILES | IC50 [µM] |
| --- | --- |
| Cc1ccc(-c2cccc(C(=O)N3CCC(C)CC3)c2)cn1 [2b, (4-Methylpiperidin-1-yl)(3-(6-methylpyridin-3-yl)phenyl)methanone] | 0.0422 |
| O=C(c1cccc(-c2ccccc2)c1)N1CCCCCC1 [12e, [1,1’-Biphenyl]-3-yl(azepan-1-yl)methanone] | 0.0234 |

same assay, conditions: 100 nM compound; lysates of HEK-293 cells; 200 nM cortisone; mean of three experiments

| SMILES | 11β-HSD1 Residual activity, % of control at 100 nM |
| --- | --- |
| Cc1ccc(-c2cccc(C(=O)N3CCC(C)CC3)c2)cn1 [2b, (4-Methylpiperidin-1-yl)(3-(6-methylpyridin-3-yl)phenyl)methanone] | 36 % of control |
| O=C(c1cccc(-c2ccccc2)c1)N1CCCCCC1 [12e, [1,1’-Biphenyl]-3-yl(azepan-1-yl)methanone] | 21 % of control |

same assay, conditions: 1 μM compound; lysates of HEK-293 cells; 200 nM cortisone; mean of three experiments

| SMILES | 11β-HSD1 Residual activity, % of control at 1 μM |
| --- | --- |
| Cc1ccc(-c2cccc(C(=O)N3CCC(C)CC3)c2)cn1 [2b, (4-Methylpiperidin-1-yl)(3-(6-methylpyridin-3-yl)phenyl)methanone] | 5 % of control |

tested on: T6, recombinant human 11β-HSD2; assay: 11β-HSD2 enzyme activity in cell lysates (cortisol to cortisone); type: biochemical; conditions: 1 μM compound; lysates of HEK-293 cells; 50 nM cortisol
T6 construct: expressed in transfected cells
Protocol: as §1, §2

| SMILES | 11β-HSD2 Residual activity, % of control at 1 μM |
| --- | --- |
| Cc1ccc(-c2cccc(C(=O)N3CCC(C)CC3)c2)cn1 [2b, (4-Methylpiperidin-1-yl)(3-(6-methylpyridin-3-yl)phenyl)methanone] | > 90 % of control |
| O=C(c1cccc(-c2ccccc2)c1)N1CCCCCC1 [12e, [1,1’-Biphenyl]-3-yl(azepan-1-yl)methanone] | > 90 % of control |
